Experimental data reported in patent US20230348415A1, “BISPECIFIC ANTAGONISTS OF RETINOL-BINDING PROTEIN 4 THAT STABILIZE TRANSTHYRETIN TETRAMERS, THEIR PREPARATION, AND USE IN THE TREATMENT OF COMMON AGE-RELATED COMORBIDITIES” (The Trustees of Columbia University in the City of New York, priority 2020, published 2023).

Columns and labels:
[1] = Metabolic stability and clearance in cynomolgus monkey liver microsomes; assay type: in vitro ADME; conditions: 30 minute incubation
Protocol: (§1) The results of metabolic stability determinations for novel compounds and testosterone (positive control) were conducted in the presence of human, rat, mouse, and monkey liver microsomes. Values shown are percent of parent remaining after a 30 minute incubation. All measurements were done in duplicate. Assay results for testosterone were within an acceptable range.
(§2) Mixed-gender human liver microsomes (Lot #1710084), male Sprague-Dawley rat liver microsomes (Lot #1610290), male CD-1 mouse liver microsomes (Lot #1710069), and male Cynomolgous liver microsomes (Lot #1510193) were purchased from XenoTech. The reaction mixture, minus NADPH, was prepared as described below. The test article was added into the reaction mixture at a final concentration of 1 μM. The control compound, testosterone, was run simultaneously with the test article in a separate reaction. An aliquot of the reaction mixture (without cofactor) was equilibrated in a shaking water bath at 37° C. for 3 minutes. The reaction was initiated by the addition of cofactor, and the mixture was incubated in a shaking water bath at 37° C. Aliquots (100 μL) were withdrawn at 0, 10, 20, 30, and 60. […] Half-lives were calculated using GraphPad software, fitting to a single-phase exponential decay equation.

serum RBP4 [2] = molecular target: T1, serum RBP4 (Mus musculus (Mouse), UniProt Q00724); experiment: Serum RBP4 after long-term oral dosing in Abca4−/−/Rdh8−/− mice; assay type: in vivo; conditions: 25 mg/kg daily in chow
Protocol: FIG. 9. Effect of the long-term oral (±)-44 administration in Abca4^−/−/Rdh8^−/− mice on serum RBP4 levels. Serum RBP4 levels were measured in vehicle-treated Abca4^−/−/Rdh8^−/− mice (squares) and (±)-44-treated Abca4^−/−/Rdh8^−/− mice (triangles) at the indicated time points. […] Error bars show S.D. Each data point on the graph represents a serum RBP4 concentration from an individual animal.
(§3) Blood samples were collected from a tail vein. Whole blood was drawn into a centrifuge tube and was allowed to clot at room temperature for 30 minutes followed by centrifugation at 2000 g for 15 minutes at […] to collect serum. Aliquots of plasma samples collected in the mouse pharmacokinetic study were analyzed for the RBP4 concentration using the RBP4 (mouse/rat) dual ELISA kit (AdipoGen, San Diego, CA) following the manufacturer's instructions. In adi-hRBP4 transgenic mouse experiments, blood samples were collected from a tail vein. […] Mouse serum RBP4 (produced predominantly in the liver) was measured using the RBP4 (mouse/rat) dual ELISA kit (AdipoGen, San Diego, CA; catalog number AG-45A-0012YTP-KI01)
(±)-44 was formulated into a Picolab 5053 chow to ensure a daily dosing of 25 mg/kg of (±)-44. […] Following the 10 weeks of dosing, the eyecups of treated and untreated Abca4^−/−/Rdh8^−/− mice as well as the eyecups of the reference wild type mice were collected for the quantitative A2E analysis.

[3] = Metabolic stability and clearance in rat liver microsomes; assay type: in vitro ADME; conditions: 30 minute incubation
Protocol: as §1, §2

PPARγ = PPARγ (Homo sapiens (Human), UniProt P37231); experiment: PPARγ agonist activity
serum RBP4 [4] = molecular target: T1, serum RBP4; experiment: Serum RBP4 measurement after a single oral dose in mice; assay type: in vivo
Protocol: FIG. 5. Pharmacokinetic and pharmacodynamic properties of (±)-44 in mice. (A) Serum RBP4 levels following a single 25 mg/kg oral administration of (±)-44. (B) Blood compound levels following administration of a single oral 5 mg/kg dose of (±)-44. Data represented as the mean±SD. Three mice per treatment group were used in the study.
as §3

TTR = TTR (Homo sapiens (Human), UniProt P02766); experiment: biochemical; assay type: binding; conditions: FITC-coupled TTR FP probe; read-out: TTR FP IC50
Protocol: Compound binding to TTR was assessed in the fluorescence polarization assay. […] Each well contained 200 nM TTR and 100 nM FITC-diclofenac in the FP buffer (10 mM Tris-HCl pH 7.5, 150 mM NaCl, 0.01% CHAPS, 0.01% Prionex) along with test compounds. Nonspecific binding was determined in the presence of 500 μM unlabeled diclofenac (Sigma-Aldrich). Reactions with test compounds were incubated overnight at 4° C. and FP was measured on SpectramaxM5e plate reader (Molecular Devices).

Chain of PPARγ (P37231 whole entry, species assumed): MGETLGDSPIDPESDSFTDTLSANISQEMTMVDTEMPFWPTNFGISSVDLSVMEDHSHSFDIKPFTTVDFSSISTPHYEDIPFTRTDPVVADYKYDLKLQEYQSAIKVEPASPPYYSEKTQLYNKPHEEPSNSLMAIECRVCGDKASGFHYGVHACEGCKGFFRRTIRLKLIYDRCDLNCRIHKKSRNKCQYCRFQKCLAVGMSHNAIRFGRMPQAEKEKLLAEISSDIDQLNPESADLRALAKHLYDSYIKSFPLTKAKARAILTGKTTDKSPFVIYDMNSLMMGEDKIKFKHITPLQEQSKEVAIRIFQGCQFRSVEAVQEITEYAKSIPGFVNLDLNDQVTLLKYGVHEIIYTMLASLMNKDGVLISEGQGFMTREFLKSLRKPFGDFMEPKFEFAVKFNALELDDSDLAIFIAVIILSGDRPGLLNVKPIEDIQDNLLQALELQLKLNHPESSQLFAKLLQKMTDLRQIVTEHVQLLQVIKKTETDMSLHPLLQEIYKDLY

## Cc1cc(C(=O)O)nc(N2CCC(COc3ccccc3C(F)(F)F)C2)n1 (racemic) [Compound (±)-44, (±)-6-Methyl-2-(3-((2-(trifluoromethyl)phenoxy)methyl)pyrrolidin-1-yl)pyrimidine-4-carboxylic Acid]
[1]
  Liver Microsomal Stability (% remaining at 30 min), cyno LM: 103%
Serum RBP4 [2]; 10 weeks
  serum RBP4 reduction compared to untreated Abca4−/−/Rdh8−/− mice: 84%
Serum RBP4 [2]; week 10, Abca4−/−/Rdh8−/− mice
  serum RBP4 reduction compared with baseline: 76%
[3]
  Liver Microsomal Stability (% remaining at 30 min), RLM: 93%
PPARγ
  IC50: > 100 µM
  PPARγ agonist activity: devoid of PPARγ agonist activity
Serum RBP4 [4]; compound dosing in mice, data not shown
  effect on serum TTR levels: no effect
Serum RBP4 [4]; single 25 mg/kg oral dose, 6 h after dose
  maximum reduction in serum RBP4: 81%
Serum RBP4 [4]; single 25 mg/kg oral dose, 24 h
  reduction in serum RBP4 at the 24 h time point: 64%
TTR
  IC50: 2.85 µM
